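Tested at 5 concentrations; 48 h exposure; 96-well plates; endpoints linearly interpolated, else capped at highest concentration. GI50 marks 50% less growth.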 The source made the active and inactive calls. Cut-off read from the data, not from the text of the source: active = GI50 up to about 1.1 µM and inactive = higher.
Legend:
Test in all cases: NCI-60 cell line screen, 48 h
XF498 = system: XF498
SNB-78 = system: SNB-78
LXFL 529 = system: LXFL 529
M19-MEL = system: M19-MEL
HOP-18 = system: HOP-18
KM-20L2 = system: KM-20L2
DMS-114 = system: DMS-114
DMS-273 = system: DMS-273
RXF 631 = system: RXF 631

COc1ccc(NC(=O)COC(=O)c2cccc3c(=O)c4ccccc4[nH]c23)cc1
GI50 (XF498): 19.9 µM (inactive) | GI50 (SNB-78): 22.1 µM (inactive) | GI50 (LXFL 529): 17.3 µM (inactive) | GI50 (M19-MEL): 19.2 µM (inactive) | GI50 (HOP-18): 27 µM (inactive) | GI50 (KM-20L2): 21.5 µM (inactive) | GI50 (DMS-114): 17.2 µM (inactive)

Cn1ncc2c(c1=O)Nc1ccccc1S2(=O)=O
GI50 (SNB-78): > 100 µM (inactive) | GI50 (LXFL 529): 80.4 µM (inactive) | GI50 (M19-MEL): > 100 µM (inactive) | GI50 (HOP-18): > 100 µM (inactive) | GI50 (DMS-273): > 100 µM (inactive) | GI50 (KM-20L2): > 100 µM (inactive) | GI50 (DMS-114): 22 µM (inactive)

Cc1cc(NC(=O)NC(=O)c2ccccc2N(C)C)ccc1Oc1ncc(Br)cn1
GI50 (XF498): 0.288 µM (active) | GI50 (SNB-78): 1.05 µM (active) | GI50 (LXFL 529): 0.39 µM (active) | GI50 (M19-MEL): 0.455 µM (active) | GI50 (HOP-18): > 100 µM (inactive) | GI50 (KM-20L2): 0.284 µM (active) | GI50 (DMS-114): 0.219 µM (active)

Cc1ccc(C)c(N2C(=O)C(=O)C(c3nc4ccccc4s3)C(=O)C2=O)c1
GI50 (SNB-78): > 100 µM (inactive) | GI50 (LXFL 529): > 100 µM (inactive) | GI50 (M19-MEL): > 100 µM (inactive) | GI50 (DMS-273): > 100 µM (inactive) | GI50 (KM-20L2): > 100 µM (inactive) | GI50 (DMS-114): > 100 µM (inactive)

COc1ccc(C2c3cc4c(cc3OC(O)(CO)C2C(=O)O)OCO4)c(OC)c1OC.COc1ccc(C2c3cc4c(cc3OC3(O)COC(=O)C23)OCO4)c(OC)c1OC (centres undefined)
GI50 (XF498): > 100 µM (inactive) | GI50 (SNB-78): 59.2 µM (inactive) | GI50 (M19-MEL): > 100 µM (inactive) | GI50 (HOP-18): > 100 µM (inactive) | GI50 (DMS-273): > 100 µM (inactive) | GI50 (KM-20L2): > 100 µM (inactive) | GI50 (DMS-114): > 100 µM (inactive)

COc1ccc([C@@H]2OC(=O)C3C2C(=O)O[C@H]3c2ccc(OC)c(OC)c2)cc1OC (some centres undefined)
GI50 (XF498): > 100 µM (inactive) | GI50 (SNB-78): > 100 µM (inactive) | GI50 (M19-MEL): > 100 µM (inactive) | GI50 (HOP-18): > 100 µM (inactive) | GI50 (DMS-273): > 100 µM (inactive) | GI50 (RXF 631): > 100 µM (inactive) | GI50 (KM-20L2): > 100 µM (inactive) | GI50 (DMS-114): > 100 µM (inactive)

CC(Oc1ccc2c(=O)cc(-c3ccccc3)oc2c1)C(=O)O (centres undefined)
GI50 (XF498): > 100 µM (inactive) | GI50 (SNB-78): > 100 µM (inactive) | GI50 (LXFL 529): > 100 µM (inactive) | GI50 (M19-MEL): > 100 µM (inactive) | GI50 (HOP-18): > 100 µM (inactive) | GI50 (KM-20L2): > 100 µM (inactive) | GI50 (DMS-114): > 100 µM (inactive)

CCOc1cc2c[n+](C)c3c4cc(OC)c(OC)cc4ccc3c2cc1OC
GI50 (SNB-78): > 100 µM (inactive) | GI50 (LXFL 529): > 100 µM (inactive) | GI50 (M19-MEL): > 100 µM (inactive) | GI50 (HOP-18): 60.8 µM (inactive) | GI50 (RXF 631): 4.07 µM (inactive) | GI50 (KM-20L2): > 100 µM (inactive) | GI50 (DMS-114): > 100 µM (inactive)

Brc1ccc(/C=N/C23CC4CC(CC(C4)C2)C3)cc1
GI50 (XF498): > 100 µM (inactive) | GI50 (SNB-78): > 100 µM (inactive) | GI50 (LXFL 529): > 100 µM (inactive) | GI50 (M19-MEL): > 100 µM (inactive) | GI50 (HOP-18): > 100 µM (inactive) | GI50 (DMS-273): > 100 µM (inactive) | GI50 (RXF 631): > 100 µM (inactive) | GI50 (KM-20L2): > 100 µM (inactive) | GI50 (DMS-114): > 100 µM (inactive)

COc1ccc(S(=O)(=O)NNS(C)(=O)=O)cc1
GI50 (XF498): 60.3 µM (inactive) | GI50 (LXFL 529): > 100 µM (inactive) | GI50 (M19-MEL): > 100 µM (inactive) | GI50 (DMS-273): > 100 µM (inactive) | GI50 (RXF 631): > 100 µM (inactive) | GI50 (KM-20L2): > 100 µM (inactive) | GI50 (DMS-114): > 100 µM (inactive)

CC(=O)Nc1ccc(-c2nnc(SCC(=O)Nc3ccc(C)cc3)o2)cc1
GI50 (SNB-78): 16.6 µM (inactive) | GI50 (LXFL 529): 16.3 µM (inactive) | GI50 (M19-MEL): 17.6 µM (inactive) | GI50 (HOP-18): 17.4 µM (inactive) | GI50 (DMS-273): 15.9 µM (inactive) | GI50 (KM-20L2): 19.5 µM (inactive) | GI50 (DMS-114): 14.8 µM (inactive)

COc1ccc(CC(=O)c2cc(OC)c(OC)cc2C)cc1OC
GI50 (XF498): 25.5 µM (inactive) | GI50 (SNB-78): > 100 µM (inactive) | GI50 (LXFL 529): 24.8 µM (inactive) | GI50 (M19-MEL): 37.6 µM (inactive) | GI50 (KM-20L2): > 100 µM (inactive) | GI50 (DMS-114): 14.7 µM (inactive)

N#C/C(=C\c1c[nH]c2ccccc12)C(=O)c1ccc(O)c(O)c1
GI50 (XF498): 48.8 µM (inactive) | GI50 (LXFL 529): 39.4 µM (inactive) | GI50 (M19-MEL): 83.2 µM (inactive) | GI50 (HOP-18): 38.5 µM (inactive) | GI50 (DMS-273): 36.2 µM (inactive) | GI50 (KM-20L2): 55.5 µM (inactive)

O=C1/C(=C/c2ccc(Cl)cc2)CNC/C1=C\c1ccc(Cl)cc1
GI50 (XF498): 2.83 µM (inactive) | GI50 (SNB-78): 2.65 µM (inactive) | GI50 (LXFL 529): 1.09 µM (active) | GI50 (M19-MEL): 2.1 µM (inactive) | GI50 (HOP-18): 4.89 µM (inactive) | GI50 (DMS-273): 1.98 µM (inactive) | GI50 (RXF 631): 2.79 µM (inactive) | GI50 (KM-20L2): 2.64 µM (inactive)

Source: ChEMBL document CHEMBL1201862, “PubChem BioAssay data set” (2004)
